Experimental data: the supplement of paper PMC10307832

Tests used:
Assay in all cases: relative viability (nuclei count vs DMSO), 5 days (fraction); higher = more cells survive
Veliparib + Decitabine = compound: C[C@]1(c2nc3c(C(N)=O)cccc3[nH]2)CCCN1 [Veliparib] + Nc1ncn([C@H]2C[C@H](O)[C@@H](CO)O2)c(=O)n1 [Decitabine] (partner 2 µM)
In short: (§1)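 Lung cancer cell lines were seeded in 1536-well plates and dosed by pin tool the next day, with either a single drug or a fixed anchor-drug dose combined with five library-drug doses (not always all listed) spaced in √10 steps. Five days later, one step fixed the cells and stained their nuclei (final 0.05% Triton X-100, 1% formaldehyde, 1 ug/ml Hoechst), and nuclei were counted on 4× images. Relative viability is the nuclei count in treated wells divided by the count in vehicle wells, and each value is the median of duplicate plates.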

[1] = compound: COC1=CC=C(C=C1)CN2C=CC3=C2C=C(C=C3)C(=O)NO + Nc1nc2[nH]cc(CCc3ccc(C(=O)N[C@@H](CCC(=O)O)C(=O)O)cc3)c2c(=O)[nH]1 [Pemetrexed] (partner 0.2 µM)
In short: as §1

Veliparib + OSI-027 = compound: C[C@]1(c2nc3c(C(N)=O)cccc3[nH]2)CCCN1 [Veliparib] + COc1cccc2cc(-c3nc([C@H]4CC[C@H](C(=O)O)CC4)n4ncnc(N)c34)[nH]c12 [OSI-027] (partner 0.5 µM)
In short: as §1

Veliparib + Olaparib = compound: C[C@]1(c2nc3c(C(N)=O)cccc3[nH]2)CCCN1 [Veliparib] + O=C(c1cc(Cc2n[nH]c(=O)c3ccccc23)ccc1F)N1CCN(C(=O)C2CC2)CC1 [Olaparib] (partner 8 µM)
In short: as §1

Cell Line	relative viability (Veliparib + Decitabine; first compound 0.02 µM)	relative viability (Veliparib + Decitabine; first compound 0.06325 µM)	relative viability (Veliparib + Decitabine; first compound 0.2 µM)	relative viability (Veliparib + Decitabine; first compound 0.6325 µM)	relative viability (Veliparib + Decitabine; first compound 2 µM)	relative viability ([1]; first compound 0.08 µM)	relative viability ([1]; first compound 0.253 µM)	relative viability ([1]; first compound 0.8 µM)	relative viability ([1]; first compound 2.53 µM)	relative viability ([1]; first compound 8 µM)	relative viability (Veliparib + OSI-027; first compound 0.02 µM)	relative viability (Veliparib + OSI-027; first compound 0.06325 µM)	relative viability (Veliparib + OSI-027; first compound 0.2 µM)	relative viability (Veliparib + OSI-027; first compound 0.6325 µM)	relative viability (Veliparib + OSI-027; first compound 2 µM)	relative viability (Veliparib + Olaparib; first compound 0.02 µM)	relative viability (Veliparib + Olaparib; first compound 0.06325 µM)	relative viability (Veliparib + Olaparib; first compound 0.2 µM)	relative viability (Veliparib + Olaparib; first compound 0.6325 µM)	relative viability (Veliparib + Olaparib; first compound 2 µM)
NCI-H2023	0.215	0.152	0.172	0.141	0.13	0.23	0.199	0.207	0.208	0.209	0.339	0.398	0.442	0.347	0.432	0.486	0.477	0.439	0.446	0.439
NCI-H1437	0.606	0.526	0.464	0.533	0.497	0.334	0.358	0.319	0.305	0.3	0.694	0.959	0.878	0.759	0.844	0.688	0.624	0.616	0.653	0.661
NCI-H322M	–	0.608	0.682	0.656	0.655	–	–	0.561	0.635	0.609	–	0.48	0.526	0.557	0.482	–	0.737	0.786	0.74	0.715
COR-L23	0.406	0.315	0.255	0.287	0.289	0.206	0.2	0.192	0.217	0.197	0.707	0.738	0.841	0.57	0.77	0.376	0.247	0.329	0.295	0.355
NCI-H2009	0.344	0.37	0.366	0.329	0.361	1.05	1.12	1	0.983	1.1	0.63	0.645	0.672	0.586	0.672	0.672	0.652	0.682	0.672	0.763
NCI-H1355	0.388	0.29	0.371	0.328	0.325	0.538	1.06	0.978	1.06	0.998	–	0.323	0.448	0.357	0.355	0.656	0.69	0.764	0.678	0.78
EBC-1	–	–	–	–	–	–	–	–	–	–	–	–	–	–	–	0.748	0.622	0.731	0.655	0.756
IA-LM	–	–	–	–	–	–	–	–	–	–	–	–	–	–	–	0.896	0.702	0.743	0.678	0.74
NCI-H2228	–	–	–	–	–	0.311	0.347	0.336	0.343	0.298	0.529	0.569	0.56	0.486	0.551	0.807	0.58	0.913	0.541	0.754
NCI-H1703	–	–	–	–	–	–	–	–	–	–	–	–	–	–	–	0.514	0.292	0.397	0.56	0.501
NCI-H1299	–	–	–	–	–	–	–	–	–	–	–	–	–	–	–	1.03	0.949	0.925	0.963	1.03
Calu-6	–	–	–	–	–	–	–	–	–	–	–	–	–	–	–	0.646	0.565	0.606	0.491	0.664
ABC-1	–	–	0.82	1.07	1.06	–	–	–	–	–	–	0.429	0.618	0.493	0.312	–	–	0.8	0.874	0.586
